pEC50, pIC50: −log10 of the molar value. Read-outs that look alike come from different tables or passages of the source.
Legend:
[1] = system: STING / IRF pathway in THP1-Dual cells; test: STING THP1 Reporter Assay, IRF pathway (secreted Lucia luciferase, QUANTI-Luc); type: cell-based; conditions: 10% human plasma, 100% activation = 100 μM cGAMP, luciferase readout, read-out: THP1 Reporter Assays EC50 IRF3
Text: (§1) THP1-Dual™ cells were derived from the human THP-1 monocyte cell line by stable integration of two inducible reporter constructs. To this end, THP1-Dual™ cells allow the simultaneous study of the […], by monitoring the activity of SEAP, and the IRF pathway by assessing the activity of a secreted luciferase (Lucia). Both reporter proteins are readily measurable in the cell culture supernatant when using QUANTI-Blue™, a SEAP detection reagent, and QUANTI-Luc™, a luciferase detection reagent.
(§2) THP1-Dual™ cells induce the activation of NF-κB in response to STING agonists. They also trigger the IRF pathway upon stimulation with STING agonists, such as cGAMP. Here, the THP-1-Dual cells were used to assess STING binders for function on the cellular level.
(§3) Serial dilutions of compounds in DMSO were added to low volume 384 well plates at 100 nl/well using an ECHO acoustic dispenser (Labcyte, model 550) to achieve final starting concentration of 100 μM in cell suspension. THP-1 Dual™ STING reporter cells (Invivogen, Dual cells cat #THPD-nfis) were added to the plates with compounds at 15,000 cells in 10 μL per well in RPMI media (Gibco, cat #11875) containing 10% human plasma in a low volume 384-well black wall clear bottom tissue culture plate (Corning, cat #3542) for SEAP assay and low volume solid white plate (Corning, cat #3826) for luciferase assay. One column of the plate was reserved for treatment with cGAMP at 100 μM for 100% activation calculation and one column for no treatment (DMSO only) for baseline activation. Plates were then incubated in 37 OC incubator at 5% CO2 for 20 hours.
(§4) In the SEAP assay, […] 2× QuantiBlue (Invivogen, cat #Rep-qb2) is added to 384 well black plates seeded with THP1 cells and incubated at 37° C. for 2 hours. Plates were read on the Envision (Perkin Elmer) at 620 nm wavelength (OD620). In the luciferase assay, 5 μl of Quantiluc (Invivogen, Rep-qlc2) is added to white 384 well plates seeded with THP1 cells and read at 5 minutes on the Envision (Perkin Elmer) using a luminescence protocol (RLU). For both cell lines, 100% activation was determined by value (RLU) of THP-1 Dual STING cells stimulated with 100 μM cGAMP (Invivogen, cat #TLRL-NACGA23-5).

[2] = molecular target: T1, STING WT (His-TVMV-S-hSTING(155-341)-H232R) (Homo sapiens, UniProt Q86WV6, H232R); test: STING HTRF binding assay (time resolved FRET competition), STING WT; conditions: 20 nM His-tagged STING WT cytoplasmic domain, 200 nM fluorescein-labeled cGAMP analog probe, one hour; read-out: HTRF Binding Assays IC50 WT
T1 construct: STING WT: His-TVMV-S-hSTING(155-341)-H232R
T1 sequence (Q86WV6 with tags, fused parts or gaps H232R): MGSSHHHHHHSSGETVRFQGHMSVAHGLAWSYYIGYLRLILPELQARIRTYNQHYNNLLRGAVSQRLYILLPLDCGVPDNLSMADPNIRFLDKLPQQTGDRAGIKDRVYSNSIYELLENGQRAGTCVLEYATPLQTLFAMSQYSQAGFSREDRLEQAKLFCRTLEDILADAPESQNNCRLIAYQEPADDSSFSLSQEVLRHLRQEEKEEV
Method: (§5) A time resolved FRET-based competition binding assay was used to assess test article binding to STING WT and STING AQ. His-tagged STING cytoplasmic domain (WT or AQ) at a concentration of 20 nM was incubated with 2.5 nM Tb-labeled anti-His antibody, test compound, and fluorescein-labeled cGAMP analog probe (BioLog cat. no. C195) at a concentration of 200 nM (STING WT) or 40 nM (STING AQ) in PBS containing 0.005% Tween-20 and 0.1% BSA for one hour. Fluorescence at 495 nm and 520 nm was measured using an EnVision microplate reader to quantify FRET between Tb-labeled anti-His antibody and fluorescein-labeled probe. Background was defined as the signal obtained in the absence of STING protein, and background subtracted FRET ratios were normalized to the maximum signal obtained in the absence of test compound. These values were converted to a percent inhibition. Percent inhibition was determined for test compounds at 11 concentrations. The IC50, defined as the concentration of competing test compound needed to reduce specific binding of the probe by 50%, was calculated using the 4 parameter logistic equation to fit the data
STING WT: His-TVMV-S-hSTING(155-341)-H232R • […] […] […] […] LRQEEKEEV (SEQ ID NO:1)

[3] = molecular target: T2, STING AQ (His-TVMV-S-hSTING(155-341)-G230A-R293Q) (Homo sapiens, UniProt Q86WV6, G230A/H232R/R293Q); test: STING HTRF binding assay (time resolved FRET competition), STING AQ; conditions: 20 nM His-tagged STING AQ cytoplasmic domain, 40 nM fluorescein-labeled cGAMP analog probe, one hour; read-out: HTRF Binding Assays IC50 AQ
T2 construct: STING AQ: His-TVMV-S-hSTING(155-341)-G230A-R293Q
T2 sequence (Q86WV6 with tags, fused parts or gaps G230A/H232R/R293Q): as the sequence (Q86WV6 with tags, fused parts or gaps H232R) above, with G99A, R162Q counted along it
Method: as §5
STING AQ: His-TVMV-S-hSTING(155-341)-G230A-R293Q • […] […] […] […] LRQEEKEEV (SEQ ID NO:2)

[4] = system: STING / NF-κB pathway in THP1-Dual cells; test: STING THP1 Reporter Assay, NF-κB pathway (SEAP, QUANTI-Blue); type: cell-based; conditions: 10% human plasma, 100% activation = 100 μM cGAMP, SEAP readout, read-out: THP1 Reporter Assays EC50 NFkB
Text: as §1, §2, §3, §4

Compound | pEC50 ([1]; 20 hours) | pIC50 [2] | pIC50 [3] | pEC50 ([4]; 20 hours) | pEC50 ([1]; Homo sapiens, THP1-Dual, 20 h) | pEC50 ([4]; Homo sapiens, THP1-Dual, 20 h)
NC(=O)c1cccc2c1nnn2[C@@H]1O[C@@H]2COP(=O)(S)O[C@H]3[C@@H](F)[C@H](n4cnc5c(N)ncnc54)O[C@@H]3COP(=O)(S)O[C@@H]1[C@@H]2O (single isomer, unassigned) [Example 8-3] | 5.00 | 6.85 | 7.70 | 4.82 |  | 
NC(=O)c1cccc2c1nnn2[C@@H]1O[C@@H]2COP(=O)(S)O[C@H]3[C@@H](F)[C@H](n4cnc5c(N)ncnc54)O[C@@H]3COP(=O)(S)O[C@@H]1[C@@H]2O (single isomer, unassigned) [Example 8-2] | 5.28 | 8.00 | 8.00 | 5.12 |  | 
Nc1ncnc2c1ncn2[C@@H]1O[C@@H]2COP(=O)(S)O[C@@H]3[C@H](O)[C@@H](COP(=O)(S)O[C@H]2[C@H]1F)O[C@H]3n1nnc2c(C(F)(F)F)cccc21 (single isomer, unassigned) [Example 9-2] | 5.10 | 6.89 | 8.00 | 4.80 |  | 
NC(=O)c1cccc2c1nnn2[C@@H]1O[C@@H]2COP(=O)(O)O[C@H]3[C@@H](F)[C@H](n4cnc5c(N)ncnc54)O[C@@H]3COP(=O)(S)O[C@@H]1[C@@H]2F (single isomer, unassigned) [Example 6-2] | 5.06 | 7.30 | 8.40 | 4.43 |  | 
Nc1ncnc2c1ncn2[C@@H]1O[C@@H]2COP(=O)(S)O[C@@H]3[C@H](O)[C@@H](COP(=O)(S)O[C@H]2[C@H]1F)O[C@H]3n1nnc2c(C(F)(F)F)cccc21 (single isomer, unassigned) [Example 9-4] | < 4.00 | 4.90 | 6.22 | < 4.00 |  | 
NC(=O)c1cccc2c1nnn2[C@@H]1O[C@@H]2COP(=O)(O)O[C@H]3[C@@H](F)[C@H](n4cnc5c(N)ncnc54)O[C@@H]3COP(=O)(O)O[C@@H]1[C@@H]2F [Example 3, 1-[(1S,6R,8R,9R,10R,15R, 17R,18R)-8-(6-amino-9H-purin-9-yl)-9,18-difluoro-3,12-dihydroxy-3,12-dioxo-2,4,7,11,13,16-hexaoxa-3λ^5,12λ^5-diphosphatricyclo [13.2.1.0^6,^10]octadecan-17-yl]-1H-1,2,3-benzotriazole-4-carboxamide] |  | 7.52 | 8.00 |  | 5.46 | 5.17
NC(=O)c1cccc2c1nnn2[C@@H]1O[C@@H]2COP(=O)(O)O[C@H]3[C@@H](F)[C@H](n4cnc5c(N)ncnc54)O[C@@H]3COP(=O)(S)O[C@@H]1[C@@H]2O (single isomer, unassigned) [Example 4-1] | 5.35 | 7.22 | 8.00 | 4.92 |  | 
Nc1ncnc2c1ncn2[C@@H]1O[C@@H]2COP(=O)(S)O[C@@H]3[C@H](O)[C@@H](COP(=O)(S)O[C@H]2[C@H]1F)O[C@H]3n1nnc2c([N+](=O)[O-])cccc21 (single isomer, unassigned) [Example 7-2] | 4.55 | 6.62 | 7.40 | 4.19 |  | 

Now from value to compound:

pEC50 ([1]; 20 hours) | pIC50 [2] | pIC50 [3] | pEC50 ([4]; 20 hours) | pEC50 ([1]; Homo sapiens, THP1-Dual, 20 h) | pEC50 ([4]; Homo sapiens, THP1-Dual, 20 h) | Compound
5.66 | 7.05 | 8.00 | 5.11 |  |  | NC(=O)c1cccc2c1nnn2[C@@H]1O[C@@H]2COP(=O)(O)O[C@H]3[C@@H](F)[C@H](n4cnc5c4ncn4ccnc54)O[C@@H]3COP(=O)(S)O[C@@H]1[C@@H]2F (single isomer, unassigned) [Example 16-1]
5.92 | 7.15 | 8.00 | 5.31 |  |  | Nc1ncnc2c1ncn2[C@@H]1O[C@@H]2COP(=O)(S)O[C@@H]3[C@H](F)[C@@H](COP(=O)(S)O[C@H]2[C@H]1F)O[C@H]3n1nnc2c(N)cccc21 (single isomer, unassigned) [Example 13-1]
6.89 | 8.00 | 8.52 | 6.52 |  |  | Nc1ncnc2c1ncn2[C@@H]1O[C@@H]2COP(=O)(S)O[C@@H]3[C@H](F)[C@@H](COP(=O)(S)O[C@H]2[C@H]1F)O[C@H]3n1nnc2c([N+](=O)[O-])cccc21 (single isomer, unassigned) [Example 11-2]
4.68 | 6.82 | 7.70 | 4.46 |  |  | Nc1ncnc2c1ncn2[C@@H]1O[C@@H]2COP(=O)(S)O[C@@H]3[C@H](F)[C@@H](COP(=O)(S)O[C@H]2[C@H]1F)O[C@H]3n1nnc2c([N+](=O)[O-])cccc21 (single isomer, unassigned) [Example 11-4]
5.92 | 8.00 | 8.70 | 5.68 |  |  | Nc1ncnc2c1ncn2[C@@H]1O[C@@H]2COP(=O)(S)O[C@@H]3[C@H](F)[C@@H](COP(=O)(S)O[C@H]2[C@H]1F)O[C@H]3n1nnc2c([N+](=O)[O-])cccc21 (single isomer, unassigned) [Example 11-1]
 | 7.10 | 8.00 |  | 5.80 | 5.27 | Nc1ncnc2c1ncn2[C@@H]1O[C@@H]2COP(=O)(S)O[C@@H]3[C@H](F)[C@@H](COP(=O)(S)O[C@H]2[C@H]1F)O[C@H]3n1nnc2c(N)cccc21 (single isomer, unassigned) [Example 12-1]
6.00 | 7.70 | 8.00 | 5.68 |  |  | O=[N+]([O-])c1cccc2c1nnn2[C@@H]1O[C@@H]2COP(=O)(S)O[C@H]3[C@@H](F)[C@H](n4cnc5c4ncn4ccnc54)O[C@@H]3COP(=O)(S)O[C@@H]1[C@@H]2O (single isomer, unassigned) [Example 15-1]
 | 7.30 | 8.00 |  | 5.48 | 4.93 | O=[N+]([O-])c1cccc2c1nnn2[C@@H]1O[C@@H]2COP(=O)(S)O[C@H]3[C@@H](F)[C@H](n4cnc5c4ncn4ccnc54)O[C@@H]3COP(=O)(S)O[C@@H]1[C@@H]2F (stereo partly drawn) [Example 14-1, (1S,6R,8R,9R,10R,15R,17R,18R)-9,18-difluoro-8-{3H-imidazo[2,1-f]purin-3-yl}-17-(4-nitro-1H-1,2,3-benzotriazol-1-yl)-3,12-disulfanyl-2,4,7,11,13,16-hexaoxa-3λ^5,12λ^5-diphosphatricyclo[13.2.1.0^6,10]octadecane-3,12-dione]
4.20 | 5.76 | 7.30 | 4.01 |  |  | O=[N+]([O-])c1cccc2c1nnn2[C@@H]1O[C@@H]2COP(=O)(S)O[C@H]3[C@@H](F)[C@H](n4cnc5c4ncn4ccnc54)O[C@@H]3COP(=O)(S)O[C@@H]1[C@@H]2O (single isomer, unassigned) [Example 15-2]

— patent US10947263B2, “Cyclic dinucleotides as anticancer agents” (BRISTOL-MYERS SQUIBB COMPANY, priority 2017, dated 2021)
